Target: T1, substance P receptor (Homo sapiens, UniProt P25103)
T1 construct: The receptor was prepared from human lymphoblast cells (IM-9); endogenous in cells; host or cells: IM-9 human lymphoblast cells (membrane preparation)
Assay: Radioligand receptor binding inhibitory activity using receptor from human lymphoblast cells (IM-9)
Conditions: 125I-BHSP radioligand, receptor from IM-9 cells, 25° C. for 30 minutes
Description: Radioligand receptor binding inhibitory activity Binding inhibitory activity using receptor from human lymphoblast cells (IM-9)
The receptor was prepared from human lymphoblast cells (IM-9). IM-9 cells (2×10^5 cells/ml) were inoculated and incubated for 3 days (one liter), which was then subjected to centrifuge for 5 minutes at 500×g to obtain cell pellets. […] The residue was washed twice with 30 ml of the above-mentioned buffer, which was then preserved frozen (−80° C.) as a specimen of the receptor.
The specimen was suspended in a reaction buffer (50 mM Tri-HCl buffer (pH 7.4), 0.02% bovine serum albumin, 1 mM phenylmethylsulfonyl fluoride, […], […] bacitracin, 3 mM manganese chloride) and 100 ul portion was the suspension was used in the reaction. […] The amount of nonspecific binding was determined by adding substance P at a final concentration of 2×10^−6M. After the reaction, using a cell harvester (290 PHD, Cambridge Technology, Inc, U.S.A.), rapid filtration was carried out through a glass filter (GF/B, Whatman, U.S.A.) to stop the reaction. After washing three times with 250 ul of 50 mM of Tris-HCl buffer (pH 7.4) containing 0.02% bovine serum albumin, the radioactivity remaining on the filter was determined with a gamma counter. Before use, the filter was immersed in 0.1% polyethyleneimine for 24 hours and air-dried.

T1 sequence (P25103 whole entry): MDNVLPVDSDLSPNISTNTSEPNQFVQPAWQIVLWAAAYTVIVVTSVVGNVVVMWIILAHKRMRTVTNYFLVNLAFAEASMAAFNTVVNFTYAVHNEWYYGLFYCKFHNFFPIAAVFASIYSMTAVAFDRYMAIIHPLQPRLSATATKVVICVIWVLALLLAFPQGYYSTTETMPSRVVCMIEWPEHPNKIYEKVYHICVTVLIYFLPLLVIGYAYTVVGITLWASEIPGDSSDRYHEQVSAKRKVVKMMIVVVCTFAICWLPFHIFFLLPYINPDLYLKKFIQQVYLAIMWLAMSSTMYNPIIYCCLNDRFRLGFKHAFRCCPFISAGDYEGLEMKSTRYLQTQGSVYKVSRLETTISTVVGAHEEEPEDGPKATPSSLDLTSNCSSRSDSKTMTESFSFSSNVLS

| Structure (SMILES) | IC50 |
| --- | --- |
| CN1CCN(Cc2cc(-c3ccccc3)c3c(n2)OCCN(Cc2cc(C(F)(F)F)cc(C(F)(F)F)c2)C3=O)CC1 [Reference Example 101, 4-[3,5-Bis(trifluoromethyl)benzyl]-2,3,4,5-tetrahydro-8-(N-methylpiperazinomethyl)-5-oxo-6-phenylpyrido[3,2-f][1,4]oxazepine] | 0.2 nM |
| C[C@@H]1CCn2c(c(-c3ccc(Cl)cc3)c3cccnc3c2=O)C(=O)N(Cc2cc(C(F)(F)F)cc(C(F)(F)F)c2)C1 [Example 6, (9R)-7-[3,5-bis(trifluoromethyl)benzyl]-5-(4-chlorophenyl)-6,7,8,9,10,11-hexahydro-9-methyl-6,13-dioxo-13H-[1,4]diazosino[2,1-g][1,7]napththylidine] | 0.13 nM |
| Cc1ccc(-c2c3c(c(=O)n4c2C(=O)N(Cc2cc(C(F)(F)F)cc(C(F)(F)F)c2)CCCC4)CN(C)CC3)cc1 [Reference Example 64, 7-[3,5-Bis(trifluoromethyl)benzyl]-1,2,3,4,6,7,8,9,10,11-decahydro-2-methyl-5-(4-methylphenyl)-6,13-dioxo-13H-[1,4]diazocino[1,2-b][2,7]naphthyridine] | 0.66 nM |
| Cc1ccc(-c2c3n(c(=O)c4ncccc24)CC[C@@H](C)CN(Cc2cc(OC(C)C)cc(OC(C)C)c2)C3=O)cc1 [Example 4, (9R)-7-[3,5-di(1-methylethyloxy)benzyl)-6,7,8,9,10,11-hexahydro-9-methyl-5-(4-methylphenyl)-6,13-dioxo-13H-[1,4]diazosino[2,1-g[]1,7]napththylidine] | 0.17 nM |
| CCOc1cc(CN2C[C@H](C)CCn3c(c(-c4ccc(C)cc4)c4cccnc4c3=O)C2=O)cc(OCC)c1 [Example 3, (9R)-7-(3,5-diethoxybenzyl)-6,7,8,9,10,11-hexahydro-9-methyl-5-(4-methylphenyl)-6,13-dioxo-13H-[1,4]diazosino[2,1-g][1,7]napththylidine] | 0.69 nM |
| Cc1cnc2c(c1-c1ccccc1)C(=O)N(Cc1cc(C(F)(F)F)cc(C(F)(F)F)c1)CCCO2 [Reference Example 78] | 1.6 nM |
| C[C@@H]1CCn2c(c(-c3ccc(Cl)c(Cl)c3)c3cccnc3c2=O)C(=O)N(Cc2cc(C(F)(F)F)cc(C(F)(F)F)c2)C1 [Example 7] | 0.83 nM |

System: not given
Assay: not given
Conditions: not given

| Structure (SMILES) | melting point |
| --- | --- |
| Cc1ccc(-c2ccnc3c2C(=O)N(Cc2cc(C(F)(F)F)cc(C(F)(F)F)c2)CCO3)cc1 [Reference Example 134, 4-[3,5-Bis(trifluoromethyl)benzyl]2,3,4,5-tetrahydro-5-oxo-6-(4-methylphenyl)pyrido[3,2-f][1,4]oxazepine] | 212 to 213 °C |
| COc1cc(CN2CCCOc3nccc(-c4ccccc4)c3C2=O)cc(OC)c1OC [Reference Example 122, 2,3,4,5-Tetrahydro-6-oxo-7-phenyl-5-(3,4,5-trimethoxybenzyl)-6H-pyrido[2,3-b][1,5]oxazocine] | 155 to 156 °C |
| Cc1cnc2c(c1-c1ccccc1)C(=O)N(Cc1cc(C(F)(F)F)cc(C(F)(F)F)c1)CCCN(C)C2=O [Reference Example 108, 6-[3,5-Bis(trifluoromethyl)benzyl]-6,7,8,9,10,11-hexahydro-3,10-dimethyl-5,11-dioxo-4-phenyl-5H-pyrido[2,3-g][1,5]diazonine] | 247 to 249 °C |
| NCc1cc(-c2ccccc2)c2c(n1)OCCN(Cc1cc(C(F)(F)F)cc(C(F)(F)F)c1)C2=O [Reference Example 97, 8-Aminomethyl-4-[3,5-bis(trifluoromethyl)benzyl]-2,3,4,5-tetrahydro-5-oxo-6-phenylpyrido[3,2-f][1,4]oxazepine] | 188 to 191 °C |
| Cc1ccc(-c2ccnc3c2C(=O)N(Cc2ccccc2)C[C@H](C)CO3)cc1 [Reference Example 135, (S)-5-Benzyl-2,3,4,5-tetrahydro-3-methyl-7-(4-methylphenyl)-6-oxo-6H-pyrido[2,3-b][1,5]oxazocine] | 148 to 149 °C |
| C[C@H]1COc2nccc(-c3ccccc3)c2C(=O)N(Cc2cc(C(F)(F)F)cc(C(F)(F)F)c2)C1 [Reference Example 126, (R)-5-[3,5-Bis(trifluoromethyl)benzyl]-2,3,4,5-tetrahydro-3-methyl-6-oxo-7-phenyl-6H-pyrido[2,3-b][1,5]oxazocine] | 142 to 143 °C |
| Cc1ccc(-c2c3n(c(=O)c4ncccc24)CCC(C)CN(Cc2cc(C(F)(F)F)cc(C(F)(F)F)c2)C3=O)cc1 (racemic) [Reference Example 70, (+/−)-7-[3,5-Bis(trifluoromethyl)benzyl]-6,7,8,9,10,11-hexahydro-9-methyl-5-(4-methylphenyl)-6,13-dioxo-13H-[1,4]diazocino[2,1-g][1,7]naphthyridine] | 280 to 281 °C |
| Cc1ccc(-c2ccnc3c2C(=O)N(Cc2ccccc2)CCO3)cc1 [Reference Example 133, 4-Benzyl-2,3,4,5-tetrahydro-5-oxo-6-(4-methylphenyl)pyrido[3,2-f][1,4]oxazepine] | 203 to 204 °C |
| CCN1CCN(Cc2cc(C(F)(F)F)cc(C(F)(F)F)c2)C(=O)c2c(ncc(C)c2-c2ccccc2)C1=O [Reference Example 107, 6-[3,5-Bis(trifluoromethyl)benzyl]-9-ethyl-5,6,7,8,9,10-hexahydro-3-methyl-5,10-dioxo-4-phenylpyrido[2,3-f][1,4]diazocine] | 228 to 229 °C |
| COc1ccc(CN2CCOc3nccc(-c4ccccc4)c3C2=O)cc1OC [Reference Example 120, 4-(3,4-Dimethoxybenzyl)-2,3,4,5-tetrahydro-5-oxo-6-phenylpyrido[3,2-f][1,4]oxazepine] | 175 to 176 °C |
| C[C@H]1COc2nccc(-c3ccccc3)c2C(=O)N(Cc2ccccc2)C1 [Reference Example 124, (R)-5-Benzyl-2,3,4,5-tetrahydro-3-methyl-6-oxo-7-phenyl-6H-pyrido[2,3-b][1,5]oxazocine] | 139 to 140 °C |
| O=C(c1cc(-c2ccccc2)c2c(n1)OCCN(Cc1cc(C(F)(F)F)cc(C(F)(F)F)c1)C2=O)N1CCOCC1 [Reference Example 116, 4-[3,5-Bis(trifluoromethyl)benzyl]-2,3,4,5-tetrahydro-8-morpholinocarbonyl-5-oxo-6-phenylpyrido[3,2-f][1,4]oxazepine] | 265 to 266 °C |
| CNC(=O)c1cc(-c2ccccc2)c2c(n1)OCCN(Cc1cc(C(F)(F)F)cc(C(F)(F)F)c1)C2=O [Reference Example 112, 4-[3,5-Bis(trifluoromethyl)benzyl]-N-methyl-2,3,4,5-tetrahydro-5-oxo-6-phenylpyrido[3,2-f][1,4]oxazepine-8-carboxamide] | 145 °C (dec.) |
| Cc1ccc(-c2ccnc3c2C(=O)N(Cc2cc(C(F)(F)F)cc(C(F)(F)F)c2)C[C@H](C)CO3)cc1 [Reference Example 136, (S)-5-[3,5-Bis(trifluoromethyl)benzyl]2,3,4,5-tetrahydro-3-methyl-7-(4-methylphenyl)-6-oxo-6H-pyrido[2,3-b][1,5]oxazocine] | 159 to 160 °C |
| C[C@H]1CCn2c(c(-c3ccccc3)c3cccnc3c2=O)C(=O)N(Cc2cc(C(F)(F)F)cc(C(F)(F)F)c2)C1 [Reference Example 73, (9S)-7-[3,5-Bis(trifluoromethyl)benzyl]-6,7,8,9,10,11-hexahydro-9-methyl-6,13-dioxo-5-phenyl-13H-[1,4]diazocino[2,1-g] [1,7]naphthyridine] | 242 to 244 °C |

— US20020132817A1, “Heterocyclic compounds, their production and use” (priority 1998, published 2002)
